“And” between values parts separate entries of the source, which are not always exact repeats. Equal entries are not always repeated. Where two headings read alike, the source gives them in different places.

The conditions of series [1]: reported findings; ref References column of Table 1; cited from earlier work.
The conditions of series [2]: cited from earlier work.
Series [3] concerns primary human hepatocytes (PHHs). To be noted: cited from earlier work.
In series [4] the test system is primary macaque hepatocytes (PMHs). To be noted: rhesus macaque, 24 h.
Series [5] has the same test system. Description: Cytotoxicity by ATP assay. The note with it: for Cytotoxicity / Max. con.: PMH, 24-h treatment; for Max. con.: maximum concentration.
For series [6], the system named is primary human hepatocytes (PHHs). To be noted: cited from earlier work; for Cytotoxicity: ATP assay, 24-h treatment.
Series [7] has as its system peripheral blood and bone marrow of rhesus macaques. To be noted: single and repeated administration, ref Hotchkiss et al., 2008; cited from earlier work.
In series [8] the test system is primary macaque hepatocytes (PMHs). Description: CometChip assay. The note with it: for BMDU/BMDL / DNA damage (ratio of %DNA in tail at highest concentration to vehicle control) / LEC (lowest effective concentration) / BMDL50–BMDU50 / Potency ranking: PMH; for BMD50: PMH CometChip data, PROAST exponential model; for DNA damage (ratio of %DNA in tail at highest concentration to vehicle control) / LEC (lowest effective concentration): 24-h treatment; for LEC (lowest effective concentration): lowest concentration positive in comet assay; for BMDL50–BMDU50: 90 % confidence interval of BMD50; for Potency ranking: rank by BMD50 among nine positive compounds.

Series [9] is described as follows: Cytotoxicity by ATP assay. The note with it: rhesus macaque.
The test system of series [10] is peripheral blood lymphocytes of male rhesus macaques. The note with it: single dose of 50 mg/kg, ref Dobrovolsky et al., 2009; cited from earlier work.
The test system of series [11] is primary macaque hepatocytes (PMHs). The note with it: rhesus macaque, 24 h. This is another data set of the same source.
In a further series the test system is Vero cells. To be noted: ref Gomes et al., 2021; cited from earlier work.
Series [12] has as its system bone marrow of rhesus macaques. The note with it: ref Rao et al., 2005; cited from earlier work.
Where [13] appears, read: reported findings, ref References column of Table 1.
The mark [14] stands for this setting: PHH CometChip data reanalyzed using PROAST, ref Seo et al., 2020.
Setting [15] is: PHH, 90 % confidence interval of BMD50, ref Seo et al., 2020.
[16] abbreviates: PHH, rank by BMD50 among nine positive compounds, ref Seo et al., 2020.
Setting [17] is: PHH, maximum concentration, ref Seo et al., 2020.
[18] abbreviates: PHH, lowest concentration positive in comet assay, ref Seo et al., 2020.

Regarding `c1ccc2c(c1)cc1ccc3cccc4ccc2c1c34` [B[a]P, benzo[a]pyrene], the “Genotoxicity assay findings in vitro” value in series [1] is “(+) for MLA, CA, MN, Pig-a, comet, Hprt, and UDS”. Also, the “Genotoxicity assay findings in vivo” value in series [2] (setting [13]) is “(+) for comet, MN, Pig-a and gene mutations”. In addition, in series [3] (setting [14]), the BMD50 was 9.2 µM. Further, the “BMDL50–BMDU50” value in series [3] (setting [15]) was 5.2 to 16.3 µM. Moreover, the Potency ranking in series [3] (setting [16]) is on record as 5. The Max. con. in series [4] and in series [6] (setting [17]) was 100 µM in each case. Also, the Cytotoxicity entry is on record as “+ (11–30 %)” in series [5] (ATP assay) and “+ (11–30 %)” in series [6] (PHH, ref Seo et al., 2020).

For `O=P1(N(CCCl)CCCl)NCCCO1` (stereo not drawn) [CPA, cyclophosphamide], the “Genotoxicity assay findings in vivo” value in series [2] (setting [13]) is “(+) for CA, MN, Pig-a, TG, and comet”. Further, the BMD50 in series [3] (setting [14]) was 248.2 µM; in series [8], 253 µM and 253.8 µM. The “BMDL50–BMDU50” value is 135 to 437 µM in series [3] (setting [15]) and 165 to 372 µM in [8]. For the same molecule, the Potency ranking in [3] (setting [16]) is recorded as 8; in [8] it was 7. The “LEC (lowest effective concentration)” value in series [3] (setting [18]) is 1768 µM; in [8], 937.5 µM. In addition, the BMDU/BMDL in series [3] (PHH, ref Seo et al., 2020) is on record as 3.2; in series [8] it was 2.3. Besides, the “DNA damage (ratio of %DNA in tail at highest concentration to vehicle control)” value in series [3] (PHH, ref Seo et al., 2020) is given as “++ (2 < ratio ≤ 5)”; in series [8] it was “+++ (the ratio > 5)”. Also, in series [7], the micronucleated reticulocytes entry is given as “significantly increased”. Moreover, in series [8] (PMHs, highest acceptable concentration, range given for four compounds together), the “fold increase in % tail DNA (DNA damage) compared to the vehicle control” value was 6.1–8.1 fold. Also, the “LEC fold higher in PHHs than in PMHs” value in [8] (comet assay LEC, PHH vs PMH) worked out at 2 fold. Moreover, in series [9], the viability (usually a per cent measure of how many cells are alive, often set against a control) at 24 h, 2500 µM was 50%. In addition, the figures for the Max. con. in series [5] and in [6] (setting [17]) were 5000 µM and 10,000 μM, respectively. Also, the Cytotoxicity result is listed as “+++ (> 50 %)” in series [5] (ATP assay) and “+ (11–30 %)” in [6] (PHH, ref Seo et al., 2020). For the same molecule, in series [6] (PHHs, 10,000 μM, ref Seo et al., 2020), the cell viability (as a rule, a per cent measure of how many cells are alive, often set against a control) is given as 88%.

As to `CCN(N=O)C(N)=O` [ENU, N-ethyl-N-nitrosourea], the “Genotoxicity assay findings in vitro” value in [1] is “(+) for MLA, CA, MN, Pig-a, Hprt, comet, and UDS”. Moreover, the “Genotoxicity assay findings in vivo” value in series [2] (setting [13]) is reported as “(+) for CA, MN, Pig-a, TG, comet”. Further, the BMD50 is 47.3 µM in series [3] (setting [14]) and 683 µM in series [8]. Further, the “BMDL50–BMDU50” value is 25.3 to 83.5 µM in series [3] (setting [15]) and 439 to 1030 µM in series [8]. For the same molecule, the results for the Potency ranking in series [3] (setting [16]) and in [8] were 7 and 8, respectively. Besides, the “LEC (lowest effective concentration)” value is 800 µM in series [3] (setting [18]) and 2400 µM in [8]. The BMDU/BMDL in series [3] (PHH, ref Seo et al., 2020) was 3.3; in series [8] it was 2.3. Besides, the “DNA damage (ratio of %DNA in tail at highest concentration to vehicle control)” value is “+++ (the ratio > 5)” in [3] (PHH, ref Seo et al., 2020) and “+++ (the ratio > 5)” in series [8]. In [8] (CometChip BMD50, PMH vs PHH), the “BMD50 fold higher in PMHs than in PHHs (lower in PHHs)” value is given as 8–22 fold. In addition, in [10], the “Pig-a and Hprt mutant frequencies” value is given as “significantly increased”. The Max. con. in series [5] and in series [6] (setting [17]) was 3200 µM throughout. Besides, the Cytotoxicity result in [5] (ATP assay) is listed as “+ (11–30 %)”; in series [6] (PHH, ref Seo et al., 2020), “− (cytotoxicity of 0–10 %)”. Moreover, the “cytotoxic effects (in words)” value in series [5] (PMHs, ATP assay, 24-h exposure) is recorded as “cytotoxic effects over the same range of concentrations, but only in PMHs”.

With `COS(C)(=O)=O` [MMS, methyl methanesulfonate], in series [11], the “BMDL50–BMDU50” value is 14.2 to 33.7 µM, the BMDU/BMDL is 2.4, the “LEC (lowest effective concentration)” value amounted to 125 µM and the Potency ranking stood at 6. Moreover, in series [2] (in vivo), the “Genotoxicity assay findings in vivo” value is reported as “(+) for CA, MN, UDS, Pig-a, TG, comet”. Further, in [3], the BMD50 is 1.0 µM, the “BMDL50–BMDU50” value is 0.5 to 1.9 µM, the BMDU/BMDL is listed as 3.5 and the “LEC (lowest effective concentration)” value was 62.5 µM. Also, the Potency ranking in series [3] is on record as 3. Also, the Max. con. in series [4] stood at 500 µM. In [6], the Max. con. was 500 µM.

Turning to `Cc1c(N(C)CS(=O)(=O)[O-])c(=O)n(-c2ccccc2)n1C.[Na+]` [dipyrone], the “DNA damage by comet assay” value in the series with Vero cells was “significant increases in DNA damage”.

For the molecule `S=P(N1CC1)(N1CC1)N1CC1` [thiotepa], the “chromosomal aberrations in bone marrow” value in series [12] is on record as “induced chromosomal aberrations”.

Values taken from paper PMC12412453 (Toxicology, 2021).
